Assay results published in ChEMBL document CHEMBL1255340, “In vitro activities of the Rx-01 oxazolidinones against hospital and community pathogens” (2008).
“And” between values parts separate entries of the source, which are not always exact repeats. Identical values can stand only once.

What was measured:
Format in all cases: functional
Staphylococcus aureus [1] = assay: Antimicrobial activity against methicillin-susceptible Staphylococcus aureus nosocomial isolate
Haemophilus influenzae [2] = assay: Antimicrobial activity against Haemophilus influenzae 54A1100
Enterococcus faecalis [3] = assay: Antimicrobial activity against Enterococcus faecalis A7789
Staphylococcus aureus [4] = assay: Antimicrobial activity against Staphylococcus aureus A8761
Enterococcus faecium [5] = assay: Antimicrobial activity against Enterococcus faecium A6349
Staphylococcus aureus [6] = assay: Antimicrobial activity against methicillin-resistant Staphylococcus aureus BK 11512
Staphylococcus hominis = assay: Antimicrobial activity against Staphylococcus hominis A7828
Enterococcus faecium [7] = assay: Antimicrobial activity against Enterococcus faecium A9621 by broth microdilution method
Enterococcus faecalis [8] = assay: Antimicrobial activity against Enterococcus faecalis A6350
Enterococcus faecalis [9] = assay: Antimicrobial activity against Enterococcus faecalis A5962
Enterococcus faecium [10] = assay: Antimicrobial activity against Enterococcus faecium A9650
Staphylococcus aureus [11] = assay: Antimicrobial activity against Staphylococcus aureus A7819 harboring G2576U mutation in 23S rRNA
Streptococcus pneumoniae [12] = assay: Antimicrobial activity against Streptococcus pneumoniae 02J1258
Staphylococcus aureus [13] = assay: Antimicrobial activity against Staphylococcus aureus A7817
Enterococcus faecium [14] = assay: Antimicrobial activity against Enterococcus faecium A8767
Streptococcus pyogenes = assay: Antimicrobial activity against Streptococcus pyogenes
Staphylococcus aureus [15] = assay: Antimicrobial activity against Staphylococcus aureus ATCC 29213
Enterococcus faecalis [16] = assay: Antimicrobial activity against vancomycin-resistant Enterococcus faecalis 03B1069
Enterococcus faecalis [17] = assay: Antimicrobial activity against Enterococcus faecalis A6343
[18] = test system: Staphylococcus epidermidis; assay: Antimicrobial activity against Staphylococcus epidermidis A8934
Streptococcus pneumoniae [19] = assay: Antimicrobial activity against Streptococcus pneumoniae PU1071099 harboring 65WR66 deletion in ribosomal protein L4 by broth microdilution method
Staphylococcus aureus [20] = assay: Antimicrobial activity against Staphylococcus aureus A7820
Enterococcus faecalis [21] = assay: Antimicrobial activity against Enterococcus faecalis ATCC 29212-P5 harboring G2576U mutation in 23S rRNA
Enterococcus faecalis [22] = assay: Antimicrobial activity against Enterococcus faecalis ATCC 29212
Staphylococcus aureus [23] = assay: Antimicrobial activity against methicillin-resistant Staphylococcus aureus BK 11118
Streptococcus pneumoniae [24] = assay: Antimicrobial activity against Streptococcus pneumoniae harboring erm(B) gene by broth microdilution method
Staphylococcus capitis = assay: Antimicrobial activity against Staphylococcus capitis A8935
Enterococcus faecium [25] = assay: Antimicrobial activity against Enterococcus faecium A8948
Enterococcus faecium [26] = assay: Antimicrobial activity against Enterococcus faecium A6345
Staphylococcus aureus [27] = assay: Antimicrobial activity against Staphylococcus aureus A8833 harboring U2500A mutation in 23S rRNA
Enterococcus faecium [28] = assay: Antimicrobial activity against Enterococcus faecium A5960
Streptococcus pneumoniae [29] = assay: Antimicrobial activity against Streptococcus pneumoniae 02J1175
Staphylococcus aureus [30] = assay: Antimicrobial activity against Staphylococcus aureus pL150
Staphylococcus aureus [31] = assay: Antimicrobial activity against Staphylococcus aureus A8727
Enterococcus faecium [32] = assay: Antimicrobial activity against Enterococcus faecium A6348 harboring G2576U mutation in 23S rRNA
Enterococcus faecium [33] = assay: Antimicrobial activity against Enterococcus faecium A5959
Haemophilus influenzae [34] = assay: Antimicrobial activity against Haemophilus influenzae A1950
Staphylococcus aureus [35] = assay: Antimicrobial activity against Staphylococcus aureus A8831 harboring U2500A mutation in 23S rRNA
Staphylococcus aureus [36] = assay: Antimicrobial activity against methicillin resistant Staphylococcus aureus 67-0
Enterococcus faecium [37] = assay: Antimicrobial activity against Enterococcus faecium A8130
Staphylococcus aureus [38] = assay: Antimicrobial activity against Staphylococcus aureus pLXM1 harboring cfr gene
Enterococcus faecium [39] = assay: Antimicrobial activity against vancomycin-susceptible Enterococcus faecium nosocomial isolate by broth microdilution method
Enterococcus faecalis [40] = assay: Antimicrobial activity against vancomycin-resistant Enterococcus faecalis nosocomial isolate
Enterococcus faecium [41] = assay: Antimicrobial activity against vancomycin-resistant Enterococcus faecium nosocomial isolate
Chlamydia trachomatis = assay: Antimicrobial activity against Chlamydia trachomatis isolated from human respiratory tract by broth microdilution method
Legionella pneumophila = assay: Antimicrobial activity against Legionella pneumophila isolated from human respiratory tract by broth microdilution method
Enterococcus faecium [42] = assay: Antimicrobial activity against Enterococcus faecium A6349 harboring G2576U mutation in 23S rRNA
Moraxella catarrhalis = assay: Antimicrobial activity against Moraxella catarrhalis
Streptococcus pneumoniae [43] = assay: Antimicrobial activity against Streptococcus pneumoniae ribosomal mutant
Chlamydia pneumoniae = assay: Antimicrobial activity against Chlamydophila pneumoniae isolated from human respiratory tract by broth microdilution method
Streptococcus pneumoniae [44] = assay: Antimicrobial activity against Streptococcus pneumoniae nosocomial isolate
Streptococcus pneumoniae [45] = assay: Antimicrobial activity against Streptococcus pneumoniae harboring mef(A) gene
Streptococcus pneumoniae [46] = assay: Antimicrobial activity against Streptococcus pneumoniae harboring erm(B) and mef(A) gene
[47] = Streptococcus pneumoniae, read-out: MIC
[48] = Enterococcus faecium, read-out: MIC

Measured: MIC

CC[C@H]1OC(=O)[C@H](C)C(=O)[C@H](C)[C@@H](O[C@@H]2O[C@H](C)C[C@H](N(C)C)[C@H]2O)[C@](C)(OC)C[C@@H](C)C(=O)[C@H](C)[C@H]2N(CCCCn3cnc(-c4cccnc4)c3)C(=O)O[C@]12C [TELITHROMYCIN]
>=0.06 ug ml-1 and 0.125 ug ml-1: Staphylococcus aureus [1]

CC[C@H]1OC(=O)[C@H](C)[C@@H](O[C@H]2C[C@@](C)(OC)[C@@H](O)[C@H](C)O2)[C@H](C)[C@@H](O[C@@H]2O[C@H](C)C[C@H](N(C)C)[C@H]2O)[C@](C)(O)C[C@@H](C)CN(C)[C@H](C)[C@@H](O)[C@]1(C)O [AZITHROMYCIN]
0.25 µg/mL: Staphylococcus aureus [30]
4 µg/mL: Enterococcus faecalis [8] | Streptococcus pneumoniae [19] | Haemophilus influenzae [34] | Enterococcus faecium [37]
2 µg/mL: Staphylococcus aureus [11] | Enterococcus faecium [26]
8 µg/mL: Enterococcus faecalis [21] | Enterococcus faecalis [22] | Enterococcus faecium [33]
64 µg/mL: Staphylococcus capitis
32 µg/mL: Streptococcus pneumoniae [29]
1 µg/mL: Haemophilus influenzae [2] | Staphylococcus aureus [13] | Staphylococcus aureus [15]
0.5 µg/mL: Staphylococcus aureus [38]
> 128 µg/mL: Enterococcus faecalis [3] | Staphylococcus aureus [4] | Enterococcus faecium [5] | Staphylococcus aureus [6] | Staphylococcus hominis | Enterococcus faecalis [9] | Enterococcus faecium [10] | Streptococcus pneumoniae [12] | Enterococcus faecium [14] | Enterococcus faecalis [16] | Enterococcus faecalis [17] | [18] | Staphylococcus aureus [20] | Staphylococcus aureus [23] | Streptococcus pneumoniae [24]; [47] | Enterococcus faecium [25] | Staphylococcus aureus [27] | Enterococcus faecium [28] | Enterococcus faecium [32] | Staphylococcus aureus [35] | Staphylococcus aureus [36]
16 µg/mL: Enterococcus faecium [7] | Staphylococcus aureus [31]
0.03 µg/mL and 0.06 µg/mL: Streptococcus pyogenes

GENTAMICIN
> 128 µg/mL: Enterococcus faecium [39] | Enterococcus faecalis [40] | Enterococcus faecium [41]

CC(=O)NC[C@H]1CN(c2ccc(-c3ccc(CNCc4cnn[nH]4)cc3)c(F)c2)C(=O)O1 [RADEZOLID]
16 µg/mL: Staphylococcus aureus [4] | Staphylococcus aureus [11] | Staphylococcus aureus [20]
2 µg/mL: Staphylococcus aureus [6] | Legionella pneumophila | Enterococcus faecalis [8] | Enterococcus faecium [14] | [18] | Enterococcus faecium [37] | Staphylococcus aureus [38]
1 µg/mL: Chlamydia trachomatis | Legionella pneumophila; Legionella pneumophila, read-out: MIC | Enterococcus faecalis [9] | Staphylococcus aureus [15] | Chlamydia pneumoniae | Enterococcus faecalis [21] | Staphylococcus aureus [23] | Staphylococcus aureus [30] | Haemophilus influenzae [34] | Staphylococcus aureus [36]
32 µg/mL: Staphylococcus aureus [13] | Staphylococcus aureus [27]
0.25 µg/mL: Streptococcus pneumoniae [12] | Streptococcus pneumoniae [29] | Streptococcus pneumoniae [44] | Streptococcus pneumoniae [45]
4 µg/mL: Enterococcus faecalis [3] | Enterococcus faecium [7] | Enterococcus faecalis [17] | Enterococcus faecium [26] | Enterococcus faecium [28] | Staphylococcus aureus [31] | Enterococcus faecium [32] | Enterococcus faecium [33]
0.125 µg/mL: Streptococcus pneumoniae [44]; [47] | Streptococcus pneumoniae [45]; [47]
0.5 µg/mL: Haemophilus influenzae [2] | Enterococcus faecium [5] | Chlamydia trachomatis; Chlamydia trachomatis, read-out: MIC | Enterococcus faecium [10] | Enterococcus faecium [42] | Moraxella catarrhalis | Enterococcus faecalis [16] | Streptococcus pneumoniae [19] | Enterococcus faecium [39]
8 µg/mL: Staphylococcus hominis
≤ 0.25 µg/mL: Moraxella catarrhalis; Moraxella catarrhalis, read-out: MIC | Streptococcus pneumoniae [43] | Enterococcus faecalis [22] | Enterococcus faecium [39]; [48] | Streptococcus pneumoniae [24]; [47] | Staphylococcus capitis | Enterococcus faecium [25] | Streptococcus pneumoniae [46]
64 µg/mL: Staphylococcus aureus [35]

CN[C@H](CC(C)C)C(=O)N[C@H]1C(=O)N[C@@H](CC(N)=O)C(=O)N[C@H]2C(=O)N[C@H]3C(=O)N[C@H](C(=O)N[C@H](C(=O)O)c4cc(O)cc(O)c4-c4cc3ccc4O)[C@H](O)c3ccc(c(Cl)c3)Oc3cc2cc(c3O[C@@H]2O[C@H](CO)[C@@H](O)[C@H](O)[C@H]2O[C@H]2C[C@](C)(N)[C@H](O)[C@H](C)O2)Oc2ccc(cc2Cl)[C@H]1O [VANCOMYCIN]
>16 µg/mL: Enterococcus faecalis [40]
2 µg/mL: Staphylococcus hominis | Enterococcus faecalis [21] | Enterococcus faecalis [22]
32 µg/mL: Enterococcus faecalis [16]
0.125 µg/mL: Streptococcus pneumoniae [12]
0.25 µg/mL: Streptococcus pneumoniae [29]
8 µg/mL: Enterococcus faecalis [9]
> 64 µg/mL: Enterococcus faecium [41]; [48]
≤ 0.25 µg/mL: Streptococcus pneumoniae [19]
1 µg/mL: Enterococcus faecalis [3] | Enterococcus faecalis [8] | Staphylococcus capitis

CCC[C@@H]1C[C@@H](C(=O)N[C@@H]([C@H]2O[C@H](SC)[C@H](O)[C@@H](O)[C@H]2O)[C@H](C)Cl)N(C)C1 [CLINDAMYCIN]
>128 µg/mL: Streptococcus pneumoniae [24]
> 64 µg/mL: Streptococcus pneumoniae [24]; [47]
